In patent US20200054058A1, “Sweetness and Taste Improvement of Steviol Glycoside and Mogroside Sweeteners with Dihydrochalcones” (The Coca-Cola Company, priority 2017, published 2020):
Read-outs that look alike come from different tables or passages of the source.

How the values were obtained:
panelist [1] = conditions: Isomer of Siamenoside I in acidic water (100 ppm, Table 4); one panelist
Source text: The panelist was asked to evaluate the sweetness of the samples against the 3%, 5%, and 8% sucrose solutions and describe the taste profiles.

panelists [2] = conditions: 250 ppm 1,6-α-isomer of Siamenoside I in acidic water; one panelist; slightly less
panelists [3] = experiment: Sensory tasting of mock beverages with Reb-J, Reb-N, Reb-O, Reb-M with and without CC-00800 against sucrose references (Example 6); format: in vivo, human; conditions: for enhancement of overall sweetness by hesperitin dihydrochalcone: 10 ppm hesperitin dihydrochalcone added to the steviol glycoside beverage, all panelists; for sweetness and bitterness rank among Reb-J, Reb-N, Reb-O, Reb-M: mock beverages without hesperitin dihydrochalcone
Experimental: Steviol glycosides, namely Reb-J, Reb-N, Reb-M, Reb-O with 95% purity were purchased from commercial sources.
A 6% stock solution of CC-00800 (hesperitin dihydrochalcone, “HDC”) was made in propylene glycol (PG) food grade and used in subsequent experiments.
Acidified mock beverages (100 grams) were made using the following ingredients (in grams) in order:
All ingredients were dissolved in carbon-filtered water and the resulting beverage was filled in 300 ml glass bottles and immediately refrigerated (4° C.). Beverages were bench tasted when cold.
Four experienced panelists bench tasted the beverages blindly. Each panelist was given warm bottled water and unsalted crackers to eat and rinse the palate between samples. A maximum of 3 samples was tasted at each session to avoid fatigue.
The first session consisted of tasting beverages without hesperitin dihydrochalcone.
The second session consisted of tasting the beverages with hesperitin dihydrochalcone added (10 ppm). All panelists agreed that hesperitin dihydrochalcone enhanced the overall sweetness for about 1 Brix for Reb-J, Reb-O, and Reb-N, while Reb-M was enhanced with about 2.5 Brix.

panelists [4] = experiment: Taste evaluation of NHDC with rebaudioside M in acidic water against sucrose solutions (Example 2); format: in vivo, human; conditions: both panelists
Source text: First, the panelists assessed the sweetness of 5 ppm of NHDC in acidic water against 1.5% sucrose solution in acidic water.
Next, panelists compared the sweetness profile of (i) a sample containing 150 ppm rebaudioside M and (ii) a sample containing 5 ppm NHDC and 150 rebaudioside M to the 6%, 8%, and 10% sucrose solutions.

panelist [5] = experiment: Taste evaluation of phloretin with rebaudioside M in acidic water against sucrose solutions (Example 1); format: in vivo, human; conditions: one panelist
Source text: First, the panelist assessed the sweetness of 40 ppm of phloretin in acidic water against a 1.5% sucrose solution in acidic water. 40 ppm of phloretin was reported to have a sweetness less than the sweetness of the 1.5% sucrose solution.
Next, the panelist compared the sweetness profile of (i) the sample containing 150 ppm rebaudioside M in acidic water and (ii) the sample containing 40 ppm phloretin and 150 ppm rebaudioside M in acidic water to the 5%, 7%, 8%, 9%, and 10% sucrose solutions.

panelists [6] = experiment: Taste evaluation of hesperetin dihydrochalcone with rebaudioside M in acidic water against sucrose solutions (Example 3); format: in vivo, human; conditions: 150 ppm rebaudioside M in acidic water; both panelists; slightly less sweet
Source text: Panelists compared the sweetness profile of (i) a sample containing 150 ppm rebaudioside M and (ii) a sample containing 40 ppm hesperetin dihydrochalcone and 150 ppm rebaudioside M to the 4%, 6%, 8%, and 10% sucrose solutions.

panelists [7] = experiment: Bench tasting of acidified mock beverages, CC-00800 + Reb-M (Example 5); format: in vivo, human; conditions: 472 ppm Reb-M, control mock beverage (Bev. #7); five panelists
Experimental: Rebaudioside M was acquired from Pure Circle (86% Reb-M, 9% Reb-D, 0.8% Reb-A, plus other steviol glycosides in minor amount).
A 6% stock solution of Hesperetin Dihydrochalcone (CC-00800) was made in propylene glycol (PG) food grade and used in subsequent experiments.
Acidified mock beverages (300 grams) were made using the following ingredients (in grams) in order:
All ingredients were dissolved in carbon-filtered water and the resulting beverage was filled in 300 ml glass bottles and immediately refrigerated (4° C.). Beverages were bench tasted next morning.
Five experienced panelists bench tasted the beverages blindly. Each panelist was given warm bottled water and unsalted crackers to eat and rinse the palate between samples. A maximum of 3 samples was tasted at each session to avoid fatigue.

panelists [8] = format: in vivo, human; conditions: 250 ppm Rebaudioside M in acidic water; for sweetness in sucrose equivalents: slightly less sweet
panelists [9] = experiment: Taste evaluation of hesperetin dihydrochalcone with siamenoside I in acidic water against sucrose solutions (Example 4); format: in vivo, human; conditions: 150 ppm siamenoside I in acidic water; both panelists; slightly less sweet
Source text: Panelists compared the sweetness profile of (i) a sample containing 150 ppm siamenoside I and (ii) a sample containing 40 ppm hesperetin dihydrochalcone and 150 ppm siamenoside I to the 4%, 6%, 8%, and 10% sucrose solutions.

panelists [10] = conditions: 250 ppm Siamenoside I in acidic water; one panelist
[11] = 10 ppm hesperitin dihydrochalcone added
[12] = 150 ppm rebaudioside M in acidic water

Question: With C[C@H](CC[C@@H](O[C@@H]1O[C@H](CO[C@H]2O[C@H](CO)[C@@H](O)[C@H](O)[C@H]2O)[C@@H](O)[C@H](O)[C@H]1O[C@@H]1O[C@H](CO)[C@@H](O)[C@H](O)[C@H]1O)C(C)(C)O)[C@H]1CC[C@@]2(C)[C@@H]3CC=C4[C@@H](CC[C@H](O[C@@H]5O[C@H](CO)[C@@H](O)[C@H](O)[C@H]5O)C4(C)C)[C@]3(C)[C@H](O)C[C@]12C [1,6-α-isomer of Siamenoside I, mogro-3-O-[β-D-glucopyranoside]-24-O-{[β-D-glucopyranosyl-(1→2)]-[α-D-glucopyranosyl-(1→6)]-β-O-D-glucopyranoside}] as the compound, how does the “sweetness against sucrose solutions” value (panelist [1]) read?
Answer: ~4 % sucrose

Question: What about the “sweetness in sucrose equivalents” value (panelists [2]) of the same compound?
Answer: less than 7 % sucrose

Question: What does the source list for COc1ccc(CCC(=O)c2c(O)cc(O)cc2O)cc1O [Hesperitin dihydrochalcone, 3-(3-Hydroxy-4-methoxyphenyl)-1-(2,4,6-trihydroxyphenyl)-1-propanone]?
Answer: effect on bitterness and other off-notes of steviol glycoside beverages (panelists [3]; [11]): reduced significantly; effect on mouth feel of steviol glycoside beverages (panelists [3]; [11]): improved

Question: For COc1ccc(CCC(=O)c2c(O)cc(O[C@@H]3O[C@H](CO)[C@@H](O)[C@H](O)[C@H]3O[C@@H]3O[C@@H](C)[C@H](O)[C@@H](O)[C@H]3O)cc2O)cc1O [NHDC, 1-[4-[[(2S,3R,4S,5S,6R)-4,5-Dihydroxy-6-(hydroxymethyl)-3-[[(2S,3R,4R,5R,6S)-3,4,5-trihydroxy-6-methyl-2-tetrahydropyranyl]oxy]-2-tetrahydropyranyl]oxy]-2,6-dihydroxyphenyl]-3-(3-hydroxy-4-methoxyphenyl)propan-1-one], which “sweetness against sucrose solution” value (panelists [4]; 5 ppm NHDC in acidic water) is on record?
Answer: < 1.5 % sucrose

Question: Which results are given for C=C1C[C@@]23CC[C@H]4[C@@](C)(CCC[C@@]4(C)C(=O)O[C@@H]4O[C@H](CO)[C@@H](O)[C@H](O)[C@H]4O[C@@H]4O[C@@H](C)[C@H](O)[C@@H](O)[C@H]4O)[C@@H]2CC[C@]1(O[C@@H]1O[C@H](CO)[C@@H](O)[C@H](O[C@@H]2O[C@H](CO)[C@@H](O)[C@H](O)[C@H]2O)[C@H]1O[C@@H]1O[C@H](CO)[C@@H](O)[C@H](O)[C@H]1O)C3 [Reb-J, rebaudioside J]?
Answer: enhancement of overall sweetness by hesperitin dihydrochalcone (panelists [3]): about 1 Brix; sweetness and bitterness rank among Reb-J, Reb-N, Reb-O, Reb-M (panelists [3]): least sweet and most bitter

Question: For C=C1C[C@@]23CC[C@H]4[C@@](C)(CCC[C@@]4(C)C(=O)O[C@@H]4O[C@H](CO)[C@@H](O)[C@H](O[C@@H]5O[C@H](CO)[C@@H](O)[C@H](O)[C@H]5O)[C@H]4O[C@@H]4O[C@@H](C)[C@H](O)[C@@H](O)[C@H]4O)[C@@H]2CC[C@]1(O[C@@H]1O[C@H](CO)[C@@H](O)[C@H](O[C@@H]2O[C@H](CO)[C@@H](O)[C@H](O)[C@H]2O)[C@H]1O[C@@H]1O[C@H](CO)[C@@H](O)[C@H](O)[C@H]1O)C3 [Reb-N, rebaudioside N], which “enhancement of overall sweetness by hesperitin dihydrochalcone” value (“enhancement of overall sweetness” below) (panelists [3]) is on record?
Answer: about 1 Brix

Question: C=C1C[C@@]23CC[C@H]4[C@@](C)(CCC[C@@]4(C)C(=O)O[C@@H]4O[C@H](CO)[C@@H](O)[C@H](O[C@@H]5O[C@H](CO)[C@@H](O)[C@H](O)[C@H]5O)[C@H]4O[C@@H]4O[C@@H](C)[C@H](O)[C@@H](O[C@@H]5O[C@H](CO)[C@@H](O)[C@H](O)[C@H]5O)[C@H]4O)[C@@H]2CC[C@]1(O[C@@H]1O[C@H](CO)[C@@H](O)[C@H](O[C@@H]2O[C@H](CO)[C@@H](O)[C@H](O)[C@H]2O)[C@H]1O[C@@H]1O[C@H](CO)[C@@H](O)[C@H](O)[C@H]1O)C3 [Reb-O, rebaudioside O] was tested. Which “enhancement of overall sweetness” value (panelists [3]) did it give?
Answer: about 1 Brix

Question: With O=C(CCc1ccc(O)cc1)c1c(O)cc(O)cc1O [phloretin, 3-(4-hydroxyphenyl)-1-(2,4,6-trihydroxyphenyl)propan-1-one] as the compound, how does the “sweetness against sucrose solution” value (panelist [5]; 40 ppm phloretin in acidic water) read?
Answer: < 1.5 % sucrose

Question: For C=C1C[C@@]23CC[C@H]4[C@@](C)(CCC[C@@]4(C)C(=O)O[C@@H]4O[C@H](CO)[C@@H](O)[C@H](O[C@@H]5O[C@H](CO)[C@@H](O)[C@H](O)[C@H]5O)[C@H]4O[C@@H]4O[C@H](CO)[C@@H](O)[C@H](O)[C@H]4O)[C@@H]2CC[C@]1(O[C@@H]1O[C@H](CO)[C@@H](O)[C@H](O[C@@H]2O[C@H](CO)[C@@H](O)[C@H](O)[C@H]2O)[C@H]1O[C@@H]1O[C@H](CO)[C@@H](O)[C@H](O)[C@H]1O)C3 [rebaudioside M], which “sweetness against sucrose solutions” value (panelist [5]; [12]) is on record?
Answer: 6 % sucrose

Question: What about the “sweetness against sucrose solutions” value (panelists [4]; [12]) of the same compound?
Answer: 6 % sucrose

Question: And the “sweetness against sucrose solutions” value (panelists [6])?
Answer: < 6 % sucrose

Question: What about the aftertaste of control (panelists [7]) of the same compound?
Answer: sweet lingering, licorice and bitter aftertaste observed in the control

Question: What about the “enhancement of overall sweetness” value (panelists [3]) of the same compound?
Answer: about 2.5 Brix

Question: What about the “sweetness and bitterness rank among Reb-J, Reb-N, Reb-O, Reb-M” value (panelists [3]) of the same compound?
Answer: sweetest

Question: What about the “sweetness and mouthfeel compared with sample also containing Hesperetin dihydrochalcone-4′-beta-D-glucoside” value (panelists [8]; both panelists) of the same compound?
Answer: less sweet and less mouthfeel

Question: What about the “sweetness in sucrose equivalents” value (panelists [8]; one panelist) of the same compound?
Answer: < 7 % sucrose

Question: And the “sweetness in sucrose equivalents” value (panelists [8]; the other panelist)?
Answer: < 8 % sucrose

Question: What does the source list for C[C@H](CC[C@@H](O[C@@H]1O[C@H](CO[C@@H]2O[C@H](CO)[C@@H](O)[C@H](O)[C@H]2O)[C@@H](O)[C@H](O)[C@H]1O[C@@H]1O[C@H](CO)[C@@H](O)[C@H](O)[C@H]1O)C(C)(C)O)[C@H]1CC[C@@]2(C)[C@@H]3CC=C4[C@@H](CC[C@H](O[C@@H]5O[C@H](CO)[C@@H](O)[C@H](O)[C@H]5O)C4(C)C)[C@]3(C)[C@H](O)C[C@]12C [siamenoside I]?
Answer: sweetness against sucrose solutions (panelists [9]): < 6 % sucrose; sweetness in sucrose equivalents (panelists [10]): ~6 % sucrose
